PubChem BioAssay (NCI)
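All cell lines were grown in 96-well plates and treated with compound for 48 hours. GI50 is the concentration that inhibits growth by half. TGI: concentration producing complete growth inhibition.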

How the values were obtained:
Assay in all cases: NCI tumour cell line growth inhibition, 48 h
[1] = tested on: DMS 114 small cell lung
[2] = tested on: DMS 273 small cell lung
[3] = tested on: KM20L2 colon
[4] = tested on: M19-MEL melanoma
[5] = tested on: BT-549 breast
[6] = tested on: DU-145 prostate
[7] = tested on: MCF7 breast
[8] = tested on: MDA-MB-231 breast
[9] = tested on: MDA-MB-435
[10] = tested on: PC-3 prostate

Structure (SMILES)	TGI [1] [µM]	TGI [2] [µM]	TGI [3] [µM]	TGI [4] [µM]	other results
N#CC(C#N)=c1ccc(=C2NCC3CCCN23)cc1 (stereo unspecified)	> 100	> 100	> 100	> 100	
COc1ccc(-n2/c(=N/C(=S)N(C)C)ss/c2=N\C(=S)N(C)C)cc1	> 100	> 100	> 100	> 100	
CC(=O)NC1=C(NCC(C)(C)C)C(=O)c2ccccc2C1=O		> 100	> 100	39.8	
Cc1nc2c(nc1C)C(=O)c1ccccc1C2=O	> 46	15.3	36.3	1.07	TGI [5]: 3.15 µM; TGI [6]: 2720 nM; TGI [7]: 3.59 µM; TGI [8]: 35.6 µM; TGI [9]: 365 nM; TGI [10]: 30.3 µM
O=C1NC2(CCCCC2)C2CCCCC(O)C12 (stereo unspecified)	> 100	> 100	> 100	> 100	
C=CCc1cc(OC)c2c(c1)C(O)CC(c1ccc(OC)c(OC)c1)O2 (stereo unspecified)	> 100	> 100	> 100	> 100	
O=C(O)CCSC(=O)Nc1cccc(F)c1	> 100	> 100	> 100		
CC(=O)OC1COC(n2c(=S)n(-c3ccc(C)cc3)c(=O)c3ccccc32)C(OC(C)=O)C1OC(C)=O (stereo unspecified)	> 100	> 100	> 100	> 100	
NC(CCc1nc(-c2ccc(Cl)cc2)cs1)C(=O)O (stereo unspecified)		> 100	> 100	> 100	
CC1CN1P1(N2CC2C)=NP(N2CC2C)(N2CC2C)=NP(N2CC2C)(N2CC2C)=N1 (stereo unspecified)		> 50	> 50	> 50	
Nc1ccc(C(=O)N/C(=C\c2ccc3c(c2)OCO3)c2nc3[nH]c(=S)[nH]c(=O)c3[nH]2)cc1			> 100	> 100	
CSc1ccc(/C=C2\CN(C)C/C(=C\c3ccc(SC)cc3)C2=O)cc1	> 100	> 100	> 100	> 100	
COc1ccc(-c2cc(=O)c3ccc(O)cc3o2)c(OC)c1OC	> 100		> 100	> 100	
COc1ccccc1NC(=O)CC(=O)n1nc(C)c(N=Nc2ccccc2C(=O)O)c1C	> 100	> 100	> 100	> 100	
O=C(N/C(=C\c1cc(Cl)ccc1Cl)c1nc2[nH]c(=S)[nH]c(=O)c2[nH]1)c1ccccc1	> 82.5		> 100	> 68.6	
O=C(CSC(=S)N1CCCCC1)Nc1nc2c(s1)CCCC2	> 100	> 100	> 100	> 100	
CCOC(=O)C(Sc1ccccc1)c1c(OC)cc(=O)oc1/C=[N+](/[O-])c1ccc(N(C)C)cc1 (stereo unspecified)	42.9	29	89.2	37.5	
O=C(O)C(Cc1ccccc1)N1C(=O)N/C(=C\c2ccc(F)cc2)C1=O (stereo unspecified)		> 100		> 100	
CC1=C(C(=O)Nc2ccccc2C)C(c2ccco2)C(C(=O)Nc2ccccc2C)=C(C)N1C	> 100			> 100	
COc1ccc(NC(=O)c2cc(OC)cc(OC)c2)cc1	> 100	> 100	32		

Structure (SMILES)	TGI [1] [µM]	TGI [2] [µM]	TGI [3] [µM]	TGI [4] [µM]	other results
CCOC(=O)COc1cccc2c1C(=O)CCO2	> 100	> 100	> 100	> 100	
CCOC(=O)C1=C(C)CC2C(=O)OC(=O)C2C1(C)C (stereo unspecified)	> 100			> 100	
O=C(/C=C/c1ccccc1Cl)c1ccc(Cl)c(Cl)c1		37.5	31.1	29.8	
O=[S@@]1Nc2ccc(Br)cc2S1		> 100	> 100	> 100	
COc1cc2cnc3c4cc(OC(C)C)c(OC)cc4ccc3c2cc1OC	> 100		> 100	> 100	
COc1ccc(/C=C\c2cc(OC)c3c(c2)OCO3)c(O)c1O	8.81	> 100	61.5	31.1	
CN(CC(=O)O)S(=O)(=O)c1ccc2ccccc2c1		> 100	> 100	> 100	
COC(=O)[C@@]12C3=NO[C@]1(C(=O)OC)C(O[Si](C)(C)C(C)(C)C)[C@H]1OC(C)(C)O[C@H]1[C@@H]2C(OCc1ccccc1)CC3 (stereo partly specified)	> 100	> 100	> 100	> 100	
CCN(CC)CC(C(=O)Nc1c(C)cccc1C)/C(C)=N\NC(=O)C[N+](C)(C)C (stereo unspecified)	> 100	> 100	> 100	> 100	
FC(F)(F)c1ccc(C2SCc3nc4ccccc4n32)cc1 (stereo unspecified)	> 100	> 100		> 100	
CC(=O)C(CN(C(C)C)C(C)C)C(c1ccccc1)c1c(O)c2ccccc2oc1=O (stereo unspecified)	> 100	> 100	> 100	> 100	
CC1(C)COC(c2ccc(C(F)(F)F)cc2C(O)c2ccc3ccccc3c2)=N1 (stereo unspecified)	> 100	> 100	> 100	> 100	GI50 [1]: > 100 µM; GI50 [2]: > 100 µM; GI50 [3]: > 100 µM; GI50 [4]: > 100 µM
O=c1cc(-c2cccc(O)c2)[nH]c2cc3c(cc12)OCO3	5.68	4.23		95.9	TGI [5]: > 100 µM; TGI [6]: 883 nM; TGI [7]: > 100 µM; TGI [8]: 22.1 µM; TGI [9]: 997 nM; TGI [10]: > 100 µM
CC(C)=CCCc1c(C)ccc2c1C(=O)C(=O)C(C(C)C)=C2	9.36	7.47	> 22	7.87	
Cc1cc(=O)[nH]c(NNC(C#N)c2cccc(O)c2)n1 (stereo unspecified)	> 100	> 100	> 100	> 100	
COc1ccc2nc3cc(Cl)ccc3c(Sc3ccccc3[N+](=O)[O-])c2c1	> 100	> 100	> 100	> 100	
COc1cccc(NC(=O)CC(=O)n2nc(C)c(N=Nc3ccccc3)c2C)c1	> 100	> 100		> 100	
CC1(C)OC(=O)C(=Cc2ccc(O)cc2)C(=O)O1	> 100	> 100	> 100	> 100	
O=C1C2=C(SCCS2)C(=O)c2ccccc21	2.09	3.31	3.52	0.616	
CC[C@@]12CCCN3CC[C@]4(c5cccc(OC)c5N(C(C)=O)[C@@H]4CC1)[C@H]32					TGI [5]: > 100 µM; TGI [6]: > 100000 nM; TGI [7]: > 100 µM; TGI [8]: > 100 µM; TGI [9]: > 100000 nM; TGI [10]: > 100 µM
